Measurements taken from PubChem BioAssay (NCI).
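Grown in 96-well plates, cells were treated for 48 hours with each compound at five concentrations. Insufficient inhibition: endpoint recorded as highest concentration tested. The concentration for 50% growth inhibition is given as GI50. TGI: concentration producing complete growth inhibition.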

Columns and labels:
Assay in all cases: DTP human tumour cell line panel, 48 h
COLO 205 colon = test system: COLO 205 colon
A549 NSCLC = test system: A549 NSCLC
OVCAR-5 ovarian = test system: OVCAR-5 ovarian
SN12C renal = test system: SN12C renal
SK-OV-3 ovarian = test system: SK-OV-3 ovarian
DU-145 prostate = test system: DU-145 prostate
CCRF-CEM leukemia = test system: CCRF-CEM leukemia
HL-60(TB) leukemia = test system: HL-60(TB) leukemia
NCI-H23 lung = test system: NCI-H23 lung
NCI-H226 lung = test system: NCI-H226 lung
T-47D breast = test system: T-47D breast
SR leukemia = test system: SR leukemia
RPMI-8226 leukemia = test system: RPMI-8226 leukemia
ACHN renal = test system: ACHN renal
UACC-62 melanoma = test system: UACC-62 melanoma
786-0 renal = test system: 786-0 renal
HT29 colon = test system: HT29 colon
PC-3 prostate = test system: PC-3 prostate
K-562 leukemia = test system: K-562 leukemia
HCT-15 colon = test system: HCT-15 colon
OVCAR-8 ovarian = test system: OVCAR-8 ovarian
HOP-62 NSCLC = test system: HOP-62 NSCLC
MALME-3M melanoma = test system: MALME-3M melanoma
EKVX NSCLC = test system: EKVX NSCLC
CAKI-1 renal = test system: CAKI-1 renal
BT-549 breast = test system: BT-549 breast
SK-MEL-5 melanoma = test system: SK-MEL-5 melanoma
MCF7 breast = test system: MCF7 breast
LOX IMVI melanoma = test system: LOX IMVI melanoma
KM12 colon = test system: KM12 colon
UACC-257 melanoma = test system: UACC-257 melanoma
UO-31 renal = test system: UO-31 renal
MOLT-4 leukemia = test system: MOLT-4 leukemia
SW-620 colon = test system: SW-620 colon
HS 578T breast = test system: HS 578T breast
HCT-116 colon = test system: HCT-116 colon
NCI/ADR-RES ovarian = test system: NCI/ADR-RES ovarian
TK-10 renal = test system: TK-10 renal
NCI-H522 lung = test system: NCI-H522 lung
MDA-MB-231 breast = test system: MDA-MB-231 breast
MDA-N = test system: MDA-N
OVCAR-3 ovarian = test system: OVCAR-3 ovarian
M14 melanoma = test system: M14 melanoma
HCC-2998 colon = test system: HCC-2998 colon
OVCAR-4 ovarian = test system: OVCAR-4 ovarian
IGROV1 ovarian = test system: IGROV1 ovarian
HOP-92 NSCLC = test system: HOP-92 NSCLC
SK-MEL-2 melanoma = test system: SK-MEL-2 melanoma
MDA-MB-435 = test system: MDA-MB-435

**Q.** What does the source list for `O=c1[nH]cnc2c1ncn2C1CCC(CO)O1` (centres undefined)?
**A.** GI50 (COLO 205 colon): > 1 mM; TGI (COLO 205 colon): > 1 mM; GI50 (A549 NSCLC): > 1 mM; TGI (A549 NSCLC): > 1 mM; GI50 (OVCAR-5 ovarian): > 1 mM; TGI (OVCAR-5 ovarian): > 1 mM; GI50 (SN12C renal): > 1 mM; TGI (SN12C renal): > 1 mM; GI50 (SK-OV-3 ovarian): > 1 mM; TGI (SK-OV-3 ovarian): > 1 mM; TGI (DU-145 prostate): > 1 mM; GI50 (CCRF-CEM leukemia): > 1 mM; TGI (CCRF-CEM leukemia): > 1 mM; GI50 (HL-60(TB) leukemia): > 1 mM; TGI (HL-60(TB) leukemia): > 1 mM; GI50 (NCI-H23 lung): > 1 mM; TGI (NCI-H23 lung): > 1 mM; GI50 (NCI-H226 lung): > 1 mM; TGI (NCI-H226 lung): > 1 mM; TGI (T-47D breast): > 1 mM; TGI (SR leukemia): > 1 mM; GI50 (RPMI-8226 leukemia): > 1 mM; TGI (RPMI-8226 leukemia): > 1 mM; TGI (ACHN renal): > 1 mM; GI50 (UACC-62 melanoma): > 1 mM; TGI (UACC-62 melanoma): > 1 mM; TGI (786-0 renal): > 1 mM; GI50 (HT29 colon): > 1 mM; TGI (HT29 colon): > 1 mM; TGI (PC-3 prostate): > 1 mM; GI50 (K-562 leukemia): > 1 mM; TGI (K-562 leukemia): > 1 mM; GI50 (HCT-15 colon): > 1 mM; TGI (HCT-15 colon): > 1 mM; GI50 (OVCAR-8 ovarian): > 1 mM; TGI (OVCAR-8 ovarian): > 1 mM; GI50 (HOP-62 NSCLC): > 1 mM; TGI (HOP-62 NSCLC): > 1 mM; GI50 (MALME-3M melanoma): > 1 mM; TGI (MALME-3M melanoma): > 1 mM; GI50 (EKVX NSCLC): > 1 mM; TGI (EKVX NSCLC): > 1 mM; GI50 (CAKI-1 renal): > 1 mM; TGI (CAKI-1 renal): > 1 mM; TGI (BT-549 breast): > 1 mM; GI50 (SK-MEL-5 melanoma): > 1 mM; TGI (SK-MEL-5 melanoma): > 1 mM; GI50 (MCF7 breast): > 1 mM; TGI (MCF7 breast): > 1 mM; GI50 (LOX IMVI melanoma): > 1 mM; TGI (LOX IMVI melanoma): > 1 mM; GI50 (KM12 colon): > 1 mM; TGI (KM12 colon): > 1 mM; GI50 (UACC-257 melanoma): > 1 mM; TGI (UACC-257 melanoma): > 1 mM; TGI (UO-31 renal): > 1 mM; GI50 (MOLT-4 leukemia): > 1 mM; TGI (MOLT-4 leukemia): > 1 mM; GI50 (SW-620 colon): > 1 mM; TGI (SW-620 colon): > 1 mM; TGI (HS 578T breast): > 1 mM; GI50 (HCT-116 colon): > 1 mM; TGI (HCT-116 colon): > 1 mM; GI50 (NCI/ADR-RES ovarian): > 1 mM; TGI (NCI/ADR-RES ovarian): > 1 mM; TGI (TK-10 renal): > 1 mM; GI50 (NCI-H522 lung): > 1 mM; TGI (NCI-H522 lung): > 1 mM; TGI (MDA-MB-231 breast): > 1 mM; TGI (MDA-N): > 1 mM; GI50 (OVCAR-3 ovarian): > 1 mM; TGI (OVCAR-3 ovarian): > 1 mM; TGI (M14 melanoma): > 1 mM; GI50 (HCC-2998 colon): > 1 mM; TGI (HCC-2998 colon): > 1 mM; GI50 (OVCAR-4 ovarian): > 1 mM; TGI (OVCAR-4 ovarian): > 1 mM; GI50 (IGROV1 ovarian): > 1 mM; TGI (IGROV1 ovarian): > 1 mM; GI50 (HOP-92 NSCLC): > 1 mM; TGI (HOP-92 NSCLC): > 1 mM; GI50 (SK-MEL-2 melanoma): > 1 mM; TGI (SK-MEL-2 melanoma): > 1 mM; TGI (MDA-MB-435): > 1 mM
